Measured values: the supplement of paper PMC7214452
Where a name gives a salt, the structure may show the parent alone.

What was measured:
Test in all cases: normalized area under the dose-response curve (viability relative to DMSO control) (fraction); higher = less sensitive (more viable cells)
Settings in all cases: exposure time not given
AMO1 (cancer type: MM) = tested on: AMO1 (cancer type: MM)
Protocol: (§1)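 25 myeloma and 15 non-Hodgkin lymphoma cell lines were exposed to each of 76 drugs as 7-point log dilutions (0.01 nM–10 µM) in duplicate. Viability was read with CellTiter-Glo and normalised to DMSO (0.1%) and staurosporine (10 µM) plate controls. Normalised AUC was calculated by the trapezoidal method relative to the negative control.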

EJM (cancer type: MM) = tested on: EJM (cancer type: MM)
Protocol: as §1

FR4 (cancer type: MM) = tested on: FR4 (cancer type: MM)
Protocol: as §1

[1] = tested on: Granta-519 (cancer type: Mantle)
Protocol: as §1

[2] = tested on: HuT 78 (cancer type: TCL)
Protocol: as §1

JJN3 (cancer type: MM) = tested on: JJN3 (cancer type: MM)
Protocol: as §1

[3] = tested on: JVM2 (cancer type: Mantle)
Protocol: as §1

[4] = tested on: JeKo-1 (cancer type: Mantle)
Protocol: as §1

KMS11 (cancer type: MM) = tested on: KMS11 (cancer type: MM)
Protocol: as §1

[5] = tested on: KMS12PE (cancer type: MM)
Protocol: as §1

KMS18 (cancer type: MM) = tested on: KMS18 (cancer type: MM)
Protocol: as §1

KMS26 (cancer type: MM) = tested on: KMS26 (cancer type: MM)
Protocol: as §1

[6] = tested on: KMS28BM (cancer type: MM)
Protocol: as §1

[7] = tested on: KMS28PE (cancer type: MM)
Protocol: as §1

KMS34 (cancer type: MM) = tested on: KMS34 (cancer type: MM)
Protocol: as §1

[8] = tested on: Karpas-299 (cancer type: TCL)
Protocol: as §1

L363 (cancer type: MM) = tested on: L363 (cancer type: MM)
Protocol: as §1

LP1 (cancer type: MM) = tested on: LP1 (cancer type: MM)
Protocol: as §1

MM1.R (cancer type: MM) = tested on: MM1.R (cancer type: MM)
Protocol: as §1

MM1.S (cancer type: MM) = tested on: MM1.S (cancer type: MM)
Protocol: as §1

[9] = tested on: Mino (cancer type: Mantle)
Protocol: as §1

My-La (cancer type: TCL) = tested on: My-La (cancer type: TCL)
Protocol: as §1

[10] = tested on: NCI-H929 (cancer type: MM)
Protocol: as §1

[11] = tested on: OCI-LY1 (cancer type: DLBCL)
Protocol: as §1

[12] = tested on: OCI-LY19 (cancer type: DLBCL)
Protocol: as §1

[13] = tested on: OCI-LY3 (cancer type: DLBCL)
Protocol: as §1

[14] = tested on: OCI-MY5 (cancer type: MM)
Protocol: as §1

[15] = tested on: OCI-MY5/CRBN (cancer type: MM)
Protocol: as §1

[16] = tested on: OCI-MY5/Vec (cancer type: MM)
Protocol: as §1

[17] = tested on: OCI-MY7 (cancer type: MM)
Protocol: as §1

OPM2 (cancer type: MM) = tested on: OPM2 (cancer type: MM)
Protocol: as §1

[18] = tested on: RPMI 8226 (cancer type: MM)
Protocol: as §1

SKMM2 (cancer type: MM) = tested on: SKMM2 (cancer type: MM)
Protocol: as §1

[19] = tested on: SR-786 (cancer type: TCL)
Protocol: as §1

[20] = tested on: SU-DHL1 (cancer type: TCL)
Protocol: as §1

[21] = tested on: SU-DHL2 (cancer type: DLBCL)
Protocol: as §1

[22] = tested on: SU-DHL6 (cancer type: DLBCL)
Protocol: as §1

Se-Ax (cancer type: TCL) = tested on: Se-Ax (cancer type: TCL)
Protocol: as §1

U266 (cancer type: MM) = tested on: U266 (cancer type: MM)
Protocol: as §1

XG2 (cancer type: MM) = tested on: XG2 (cancer type: MM)
Protocol: as §1

Row | SMILES | normalized area under the dose-response curve (AMO1 (cancer type: MM)) | normalized area under the dose-response curve (EJM (cancer type: MM)) | normalized area under the dose-response curve (FR4 (cancer type: MM)) | normalized area under the dose-response curve [1] | normalized area under the dose-response curve [2] | normalized area under the dose-response curve (JJN3 (cancer type: MM)) | normalized area under the dose-response curve [3] | normalized area under the dose-response curve [4] | normalized area under the dose-response curve (KMS11 (cancer type: MM)) | normalized area under the dose-response curve [5] | normalized area under the dose-response curve (KMS18 (cancer type: MM)) | normalized area under the dose-response curve (KMS26 (cancer type: MM)) | normalized area under the dose-response curve [6] | normalized area under the dose-response curve [7] | normalized area under the dose-response curve (KMS34 (cancer type: MM)) | normalized area under the dose-response curve [8] | normalized area under the dose-response curve (L363 (cancer type: MM)) | normalized area under the dose-response curve (LP1 (cancer type: MM)) | normalized area under the dose-response curve (MM1.R (cancer type: MM)) | normalized area under the dose-response curve (MM1.S (cancer type: MM)) | normalized area under the dose-response curve [9] | normalized area under the dose-response curve (My-La (cancer type: TCL)) | normalized area under the dose-response curve [10] | normalized area under the dose-response curve [11] | normalized area under the dose-response curve [12] | normalized area under the dose-response curve [13] | normalized area under the dose-response curve [14] | normalized area under the dose-response curve [15] | normalized area under the dose-response curve [16] | normalized area under the dose-response curve [17] | normalized area under the dose-response curve (OPM2 (cancer type: MM)) | normalized area under the dose-response curve [18] | normalized area under the dose-response curve (SKMM2 (cancer type: MM)) | normalized area under the dose-response curve [19] | normalized area under the dose-response curve [20] | normalized area under the dose-response curve [21] | normalized area under the dose-response curve [22] | normalized area under the dose-response curve (Se-Ax (cancer type: TCL)) | normalized area under the dose-response curve (U266 (cancer type: MM)) | normalized area under the dose-response curve (XG2 (cancer type: MM))
1 | Nc1ncn([C@H]2C[C@H](O)[C@@H](CO)O2)c(=O)n1 [Decitabine] | 0.836 | 0.916 | 0.937 | 0.978 | 0.958 | 0.912 | 0.879 | 0.644 | 0.871 | 0.9 | 0.97 | 0.897 | 0.955 | 0.778 | 0.702 | 0.912 | 0.82 | 0.88 | 0.85 | 0.89 | 0.818 | 0.957 | 0.89 | 0.912 | 0.84 | 0.883 | 0.773 | 0.888 | 0.93 | 0.91 | 0.835 | 0.914 | 0.933 | 0.854 | 0.962 | 0.94 | 0.844 | 0.832 | 0.804 | 0.896
2 | C[C@@H]1C[C@H]2[C@@H]3CCC4=CC(=O)C=C[C@]4(C)[C@@]3(F)[C@@H](O)C[C@]2(C)[C@@]1(O)C(=O)CO [Dexamethasone] | 0.762 | 0.777 | 0.933 | 0.925 | 0.873 | 0.983 | 0.799 | 0.875 | 0.805 | 0.96 | 0.788 | 0.773 | 0.904 | 0.735 | 0.487 | 0.852 | 0.756 | 0.613 | 0.94 | 0.66 | 0.86 | 0.883 | 0.79 | 0.924 | 0.947 | 0.963 | 0.725 | 0.928 | 0.814 | 0.76 | 0.826 | 0.777 | 0.648 | 0.972 | 0.907 | 0.686 | 0.8 | 0.759 | 0.818 | 0.863
3 | CCc1cnn2c(NCc3ccc[n+]([O-])c3)cc(N3CCCC[C@H]3CCO)nc12 [Dinaciclib] | 0.03 | 0.0534 | 0.0504 | 0.625 | 0.0209 | 0.0469 | 0.259 | 0.0614 | 0.084 | 0.04 | 0.0366 | 0.0286 | 0.0793 | 0.169 | 0.124 | 0.0458 | 0.0142 | 0.0551 | 0.03 | 0.03 | 0.392 | 0.582 | 0.04 | 0.0794 | 0.414 | 0.148 | 0.0272 | 0.0017 | 0.0029 | 0.02 | 0.0465 | 0.0467 | 0.628 | 0.0218 | 0.0533 | 0.393 | 0.667 | 0.31 | 0.0357 | 0.0928
4 | Cc1ccc(-n2nc(C(C)(C)C)cc2NC(=O)Nc2ccc(OCCN3CCOCC3)c3ccccc23)cc1 [Doramapimod] | 0.842 | 0.872 | 0.932 | 0.938 | 0.812 | 0.726 | 0.687 | 1.04 | 0.782 | 0.89 | 0.926 | 0.787 | 0.887 | 0.842 | 0.737 | 0.916 | 0.801 | 0.87 | 0.88 | 0.8 | 0.97 | 0.907 | 0.87 | 0.999 | 0.645 | 0.9 | 0.693 | 0.961 | 0.916 | 0.89 | 0.834 | 0.917 | 0.969 | 0.919 | 0.737 | 0.901 | 0.858 | 0.736 | 0.634 | 0.806
5 | CC(C)(O)CNc1nc(Nc2ccnc(C(F)(F)F)c2)nc(-c2cccc(C(F)(F)F)n2)n1 [Enasidenib (Agios ag-221)] | 0.864 | 0.865 | 0.944 | 0.975 | 0.86 | 0.822 | 0.787 | 0.881 | 0.95 | 0.9 | 0.772 | 0.887 | 0.894 | 0.819 | 0.853 | 0.9 | 0.802 | 0.772 | 0.81 | 0.8 | 0.877 | 0.947 | 0.92 | 0.957 | 0.972 | 1 | 0.723 | 0.903 | 0.847 | 0.81 | 0.749 | 0.92 | 0.905 | 0.908 | 0.888 | 0.918 | 0.92 | 0.837 | 0.914 | 0.899
6 | C#Cc1cccc(Nc2ncnc3cc(OCCOC)c(OCCOC)cc23)c1 [Erlotinib hydrochloride] | 0.897 | 0.91 | 0.877 | 0.938 | 0.756 | 0.878 | 0.665 | 0.886 | 0.85 | 0.8 | 0.84 | 0.928 | 0.847 | 0.871 | 0.805 | 0.907 | 0.814 | 0.869 | 0.84 | 0.86 | 0.95 | 0.972 | 0.88 | 0.888 | 0.864 | 0.897 | 0.796 | 0.878 | 0.861 | 0.84 | 0.86 | 0.903 | 0.922 | 0.962 | 0.87 | 0.839 | 0.905 | 0.84 | 0.946 | 0.888
7 | CO[C@H]1C[C@@H]2CC[C@@H](C)[C@@](O)(O2)C(=O)C(=O)N2CCCC[C@H]2C(=O)O[C@H]([C@H](C)C[C@@H]2CC[C@@H](OCCO)[C@H](OC)C2)CC(=O)[C@H](C)/C=C(\C)[C@@H](O)[C@@H](OC)C(=O)[C@H](C)C[C@H](C)/C=C/C=C/C=C/1C [Everolimus] | 0.637 | 0.661 | 0.758 | 0.783 | 0.699 | 0.656 | 0.64 | 0.876 | 0.674 | 0.72 | 0.617 | 0.76 | 0.813 | 0.699 | 0.557 | 0.682 | 0.627 | 0.831 | 0.63 | 0.63 | 0.72 | 0.711 | 0.71 | 0.665 | 0.592 | 0.785 | 0.676 | 0.829 | 0.819 | 0.83 | 0.593 | 0.769 | 0.802 | 0.729 | 0.639 | 0.566 | 0.685 | 0.545 | 0.606 | 0.505
8 | Nc1nc(F)nc2c1ncn2[C@@H]1O[C@H](COP(=O)(O)O)[C@@H](O)[C@@H]1O [Fludarabine phosphate] | 0.813 | 0.882 | 0.858 | 0.949 | 0.911 | 0.934 | 0.855 | 0.912 | 0.746 | 0.94 | 0.894 | 0.863 | 0.834 | 0.767 | 0.785 | 0.885 | 0.781 | 0.938 | 0.92 | 0.87 | 0.844 | 0.879 | 0.9 | 0.866 | 1.02 | 0.962 | 0.788 | 0.972 | 1 | 0.95 | 0.859 | 0.767 | 0.88 | 0.914 | 0.888 | 0.918 | 0.927 | 0.798 | 0.812 | 0.857
